The record followed here is patent US7928139B2 (Amgen Inc., priority 2006, dated 2011).

HIF PHD2, sequence (Q9GZT9 whole entry): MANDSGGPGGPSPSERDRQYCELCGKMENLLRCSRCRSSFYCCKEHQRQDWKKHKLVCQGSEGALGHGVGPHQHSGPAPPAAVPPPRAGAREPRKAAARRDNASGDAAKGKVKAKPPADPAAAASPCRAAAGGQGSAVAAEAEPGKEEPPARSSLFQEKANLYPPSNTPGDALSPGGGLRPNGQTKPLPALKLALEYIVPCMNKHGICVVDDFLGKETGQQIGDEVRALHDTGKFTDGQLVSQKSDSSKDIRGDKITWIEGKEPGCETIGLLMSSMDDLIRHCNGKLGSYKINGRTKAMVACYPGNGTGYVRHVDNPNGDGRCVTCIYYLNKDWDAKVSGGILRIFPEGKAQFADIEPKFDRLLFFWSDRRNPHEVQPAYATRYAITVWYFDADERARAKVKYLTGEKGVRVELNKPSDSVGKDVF

For the assay, the target named is HIF PHD2 (Homo sapiens, UniProt Q9GZT9). Kind of assay: PHD2 inhibition assay (TR-FRET, VCB-Eu detection of hydroxylated P564-HIF1α peptide). Type of assay: biochemical. The settings on record: 2 nM PHD2, 100 nM P564-HIF1α peptide, 0.25 μM 2-oxoglutarate, 100 μM FeCl2, 2 mM ascorbic acid. A digest of the protocol:
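Human PHD2 (2 nM final) preincubated 1 h at room temperature with compound and 100 μM FeCl2 in pH 6 MES buffer, 5% DMSO final. Reaction with 100 nM biotinylated P564-HIF1α peptide, 2 mM ascorbate and 0.25 μM 2-oxoglutarate for 1 h, stopped with succinate. Hydroxylation read by TR-FRET (VCB-Eu/streptavidin-APC, 655/615 nm); IC50 from 4-parameter fit of percent of control.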
In general, IC50 refers to the concentration that inhibits the measured activity by half. A high value points to lower potency. In the case of `CC1(C)C(=O)C(C(=O)NCC(=O)O)=C(O)c2ccc(C#Cc3cccnc3)cc21` [Example 117, 2-(2-hydroxy-1,1-dimethyl-4-oxo-7-(2-(pyridin-3-yl)ethynyl)-1,4-dihydronaphthalene-3-carboxamido) acetic acid], the half-inhibitory concentration (IC50) was below 100 nM. The figure for `CC1(C)C(=O)C(C(=O)CCC(=O)O)=C(O)c2cc(Cl)c(Cl)cc21` [Example 118, 4-(6,7-Dichloro-3-hydroxy-4,4-dimethyl-1-oxo-1,4-dihydro-2-naphthalenyl)-4-oxobutanoic acid] is 100 to 500 nM; for `O=C(O)CCC(=O)C1=C(O)c2cc(Cl)ccc2C2(CCOCC2)C1=O` [Example 119, 4-(6-Chloro-2-hydroxy-4-oxo-2′,3′,5′,6′-tetrahydro-4H-spiro[naphthalene-1,4′-pyran]-3-yl)-4-oxobutanoic acid] it is below 100 nM.

For the molecule `CC(CC(=O)O)C(=O)C1=C(O)c2cc(Cl)ccc2C2(CCOCC2)C1=O` (stereo not drawn) [Example 121, 4-(6-Chloro-2-hydroxy-4-oxo-2′,3′,5′,6′-tetrahydro-4H-spiro[naphthalene-1,4′-pyran]-3-yl)-3-methyl-4-oxobutanoic acid], the IC50 lay in the range of 1000 to 10000 nM. Molecule `CC1(C#N)C(=O)C(C(=O)CCC(=O)O)=C(O)c2cc(Cl)ccc21` (stereo not drawn) [Example 123, 4-(7-chloro-4-cyano-3-hydroxy-4-methyl-1-oxo-1,4-dihydro-2-naphthalenyl)-4-oxobutanoic acid] displayed an IC50 of 1000 to 10000 nM. `CC1(C)C(=O)C(C(=O)CCC(=O)O)=C(O)c2ccc(F)c(F)c21` [Example 126, 4-(5,6-difluoro-1-hydroxy-4,4-dimethyl-3-oxo-3,4-dihydronaphthalen-2-yl)-4-oxobutanoic acid]: the IC50 lay within 100 to 500 nM.

`CC1(C)C(=O)C(C(=O)CCC(=O)O)=C(O)c2ccc(Cl)cc21` [Example 127, 4-(6-chloro-1-hydroxy-4,4-dimethyl-3-oxo-3,4-dihydronaphthalen-2-yl)-4-oxobutanoic acid]: the IC50 was in the range of 100 to 500 nM. On to `O=C(O)CCC(=O)C1=C(O)c2ccc(Cl)cc2C2(CCOCC2)C1=O` [Example 128, 4-(7-chloro-2-hydroxy-4-oxo-2′,3′,5′,6′-tetrahydro-4H-spiro[naphthalene-1,4′-pyran]-3-yl)-4-oxobutanoic acid], for which the half-inhibitory concentration (IC50) is below 100 nM.

Consider `CC1(C#N)C(=O)C(C(=O)NCC(=O)O)=C(O)c2ccc(Cl)cc21` (stereo not drawn) [Example 129, 2-(7-chloro-1-cyano-4-hydroxy-1-methyl-2-oxo-1,2-dihydronaphthalene-3-carboxamido) acetic acid], for which the IC50 is below 100 nM. `CC1(C#N)C(=O)C(C(=O)NCC(=O)O)=C(O)c2ccc(F)cc21` (stereo not drawn) [Example 130, 2-(1-cyano-7-fluoro-4-hydroxy-1-methyl-2-oxo-1,2-dihydronaphthalene-3-carboxamido) acetic acid] displayed a half-inhibitory concentration (IC50) below 100 nM. In turn, `CC1(C#N)C(=O)C(C(=O)NCC(=O)O)=C(O)c2cc(F)ccc21` (stereo not drawn) [Example 131, 2-(1-cyano-6-fluoro-4-hydroxy-1-methyl-2-oxo-1,2-dihydronaphthalene-3-carboxamido) acetic acid] showed an IC50 below 100 nM. Molecule `CC1(C#N)C(=O)C(C(=O)NCC(=O)O)=C(O)c2ccc(Br)cc21` (stereo not drawn) [Example 132, 2-(7-bromo-1-cyano-4-hydroxy-1-methyl-2-oxo-1,2-dihydronaphthalene-3-carboxamido) acetic acid] yielded an IC50 below 100 nM. The molecule `CC1(C#N)C(=O)C(C(=O)NCC(=O)O)=C(O)c2cc(F)c(F)cc21` (stereo not drawn) [Example 133, 2-(1-cyano-6,7-difluoro-4-hydroxy-1-methyl-2-oxo-1,2-dihydronaphthalene-3-carboxamido) acetic acid] registered an IC50 below 100 nM. Turning to “(R)-2-(7-bromo-1- cyano-4-hydroxy-1- methyl-2-oxo-1,2- dihydronaphthalene- 3-carboxamido) acetic acid or (S)-2-(7-bromo-1- cyano-4-hydroxy-1- methyl-2-oxo-1,2- dihydronaphthalene- 3-carboxamido) acetic acid [Example 134]”, the IC50 was below 100 nM. Turning to “(R)-2-(7-chloro-1- cyano-4-hydroxy-1- methyl-2-oxo-1,2- dihydronaphthalene- 3-carboxamido) acetic acid or (S)-2-(7-chloro-1- cyano-4-hydroxy-1- methyl-2-oxo-1,2- dihydronaphthalene- 3-carboxamido) acetic acid [Example 136]”, the IC50 is below 100 nM.
